Values after ≈ are worked out from the molar mass of the structure shown.
Tests used:
[1] = SUPPLEMENTARY: Lyophilisation Solubility Assay (LYSA); type: physicochemical; conditions: read-out: Kinetic_solubility
[2] = SUPPLEMENTARY: Lipophilicity (log D) Determination by high-throughput shake-flask; type: physicochemical; conditions: octanol/water
[3] = target: T1, Carnitine O-palmitoyltransferase 1, muscle isoform (Homo sapiens, UniProt Q92523); assay: SUPPLEMENTARY: Inhibition of Carnitine palmitoyltransferase 1, muscle isoform; design: species or system Muscle tissue
T1 sequence (Q92523 whole entry): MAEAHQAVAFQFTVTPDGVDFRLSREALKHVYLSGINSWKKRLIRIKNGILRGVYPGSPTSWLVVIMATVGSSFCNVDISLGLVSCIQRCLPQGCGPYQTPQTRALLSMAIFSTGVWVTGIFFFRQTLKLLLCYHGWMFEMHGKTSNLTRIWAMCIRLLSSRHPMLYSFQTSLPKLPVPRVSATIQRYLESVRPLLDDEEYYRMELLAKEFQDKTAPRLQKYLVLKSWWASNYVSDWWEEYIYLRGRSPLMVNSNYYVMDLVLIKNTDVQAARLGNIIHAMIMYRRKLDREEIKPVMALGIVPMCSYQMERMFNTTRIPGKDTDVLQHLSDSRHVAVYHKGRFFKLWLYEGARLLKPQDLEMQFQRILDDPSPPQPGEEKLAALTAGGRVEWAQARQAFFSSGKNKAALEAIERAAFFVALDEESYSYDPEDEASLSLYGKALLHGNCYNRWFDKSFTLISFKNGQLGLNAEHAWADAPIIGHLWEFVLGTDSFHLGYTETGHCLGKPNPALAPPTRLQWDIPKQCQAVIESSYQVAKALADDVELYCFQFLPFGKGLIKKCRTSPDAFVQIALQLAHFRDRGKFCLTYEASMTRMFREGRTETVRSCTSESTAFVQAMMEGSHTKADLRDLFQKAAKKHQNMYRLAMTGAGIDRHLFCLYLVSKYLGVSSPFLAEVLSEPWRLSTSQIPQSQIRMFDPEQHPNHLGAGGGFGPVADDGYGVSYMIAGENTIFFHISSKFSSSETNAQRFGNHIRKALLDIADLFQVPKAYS

[4] = target: T2, Carnitine O-palmitoyltransferase 1, liver isoform (Rattus norvegicus, UniProt P32198); assay: (§1) SUPPLEMENTARY: Inhibition of Carnitine palmitoyltransferase 1, liver isoform
T2 sequence (P32198 whole entry): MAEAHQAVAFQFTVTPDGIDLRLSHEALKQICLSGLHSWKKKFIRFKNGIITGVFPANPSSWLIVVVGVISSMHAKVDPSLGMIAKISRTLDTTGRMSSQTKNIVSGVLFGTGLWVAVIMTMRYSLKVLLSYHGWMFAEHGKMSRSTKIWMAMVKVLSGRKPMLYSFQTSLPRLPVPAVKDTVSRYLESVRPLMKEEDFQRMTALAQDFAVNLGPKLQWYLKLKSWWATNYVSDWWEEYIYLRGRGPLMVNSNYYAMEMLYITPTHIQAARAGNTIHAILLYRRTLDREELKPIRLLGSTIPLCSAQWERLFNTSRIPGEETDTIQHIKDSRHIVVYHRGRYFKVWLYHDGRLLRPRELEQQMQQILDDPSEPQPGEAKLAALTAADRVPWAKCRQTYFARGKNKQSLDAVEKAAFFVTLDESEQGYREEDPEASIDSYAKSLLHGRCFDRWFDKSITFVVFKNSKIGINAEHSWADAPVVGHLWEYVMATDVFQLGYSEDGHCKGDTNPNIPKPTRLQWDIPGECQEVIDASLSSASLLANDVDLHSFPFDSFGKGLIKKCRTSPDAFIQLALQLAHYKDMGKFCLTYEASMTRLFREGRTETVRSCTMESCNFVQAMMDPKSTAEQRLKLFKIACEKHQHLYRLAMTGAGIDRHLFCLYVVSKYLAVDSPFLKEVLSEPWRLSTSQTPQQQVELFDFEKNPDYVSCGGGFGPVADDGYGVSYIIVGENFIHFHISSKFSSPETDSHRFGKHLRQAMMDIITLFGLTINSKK

[5] = target: T3, Carnitine O-palmitoyltransferase 1, liver isoform (Homo sapiens, UniProt P50416); assay: as §1
T3 sequence (P50416 whole entry): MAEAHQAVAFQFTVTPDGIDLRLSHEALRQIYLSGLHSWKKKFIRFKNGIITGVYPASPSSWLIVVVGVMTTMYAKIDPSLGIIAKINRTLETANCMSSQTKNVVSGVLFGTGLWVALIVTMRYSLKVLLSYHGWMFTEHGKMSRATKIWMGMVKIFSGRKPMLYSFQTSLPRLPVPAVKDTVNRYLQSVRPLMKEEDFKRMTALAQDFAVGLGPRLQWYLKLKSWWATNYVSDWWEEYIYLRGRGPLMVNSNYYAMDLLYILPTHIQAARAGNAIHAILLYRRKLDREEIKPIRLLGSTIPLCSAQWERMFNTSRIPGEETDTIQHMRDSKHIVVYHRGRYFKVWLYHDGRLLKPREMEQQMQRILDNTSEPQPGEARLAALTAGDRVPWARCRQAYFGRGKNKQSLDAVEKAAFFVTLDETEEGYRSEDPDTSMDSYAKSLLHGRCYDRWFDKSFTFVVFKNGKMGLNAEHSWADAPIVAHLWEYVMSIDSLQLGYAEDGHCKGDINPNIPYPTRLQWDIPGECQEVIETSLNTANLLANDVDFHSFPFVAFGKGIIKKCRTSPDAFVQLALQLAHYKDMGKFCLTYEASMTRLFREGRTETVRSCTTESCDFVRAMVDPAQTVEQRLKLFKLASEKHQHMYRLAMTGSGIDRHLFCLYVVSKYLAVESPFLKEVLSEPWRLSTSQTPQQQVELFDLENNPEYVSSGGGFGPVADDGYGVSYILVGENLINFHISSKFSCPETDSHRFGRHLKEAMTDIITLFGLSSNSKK

[6] = target: T4, Carnitine O-palmitoyltransferase 2, mitochondrial (Rattus norvegicus, UniProt P18886); assay: (§2) SUPPLEMENTARY: Inhibition of Carnitine palmitoyltransferase 2
T4 sequence (P18886 whole entry): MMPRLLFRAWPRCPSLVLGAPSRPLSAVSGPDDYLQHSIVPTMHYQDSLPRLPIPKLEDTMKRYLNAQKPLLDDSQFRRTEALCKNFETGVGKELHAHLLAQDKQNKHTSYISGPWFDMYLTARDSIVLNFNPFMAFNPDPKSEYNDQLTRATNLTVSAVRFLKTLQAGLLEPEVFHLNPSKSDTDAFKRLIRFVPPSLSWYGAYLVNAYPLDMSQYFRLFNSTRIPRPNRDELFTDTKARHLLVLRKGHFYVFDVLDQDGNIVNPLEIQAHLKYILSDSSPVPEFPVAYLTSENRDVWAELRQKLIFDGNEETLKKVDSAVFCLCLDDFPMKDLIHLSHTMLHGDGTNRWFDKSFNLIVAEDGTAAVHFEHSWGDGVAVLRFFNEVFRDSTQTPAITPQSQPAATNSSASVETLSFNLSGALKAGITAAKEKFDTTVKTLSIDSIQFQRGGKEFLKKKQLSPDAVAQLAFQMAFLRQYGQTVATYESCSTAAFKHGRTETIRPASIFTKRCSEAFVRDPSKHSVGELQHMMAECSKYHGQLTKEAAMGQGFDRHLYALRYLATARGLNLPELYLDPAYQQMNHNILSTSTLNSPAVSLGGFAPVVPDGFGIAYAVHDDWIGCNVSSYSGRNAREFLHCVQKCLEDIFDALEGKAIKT

[7] = target: T5, Carnitine O-palmitoyltransferase 2, mitochondrial (Homo sapiens, UniProt P23786); assay: as §2
T5 sequence (P23786 whole entry): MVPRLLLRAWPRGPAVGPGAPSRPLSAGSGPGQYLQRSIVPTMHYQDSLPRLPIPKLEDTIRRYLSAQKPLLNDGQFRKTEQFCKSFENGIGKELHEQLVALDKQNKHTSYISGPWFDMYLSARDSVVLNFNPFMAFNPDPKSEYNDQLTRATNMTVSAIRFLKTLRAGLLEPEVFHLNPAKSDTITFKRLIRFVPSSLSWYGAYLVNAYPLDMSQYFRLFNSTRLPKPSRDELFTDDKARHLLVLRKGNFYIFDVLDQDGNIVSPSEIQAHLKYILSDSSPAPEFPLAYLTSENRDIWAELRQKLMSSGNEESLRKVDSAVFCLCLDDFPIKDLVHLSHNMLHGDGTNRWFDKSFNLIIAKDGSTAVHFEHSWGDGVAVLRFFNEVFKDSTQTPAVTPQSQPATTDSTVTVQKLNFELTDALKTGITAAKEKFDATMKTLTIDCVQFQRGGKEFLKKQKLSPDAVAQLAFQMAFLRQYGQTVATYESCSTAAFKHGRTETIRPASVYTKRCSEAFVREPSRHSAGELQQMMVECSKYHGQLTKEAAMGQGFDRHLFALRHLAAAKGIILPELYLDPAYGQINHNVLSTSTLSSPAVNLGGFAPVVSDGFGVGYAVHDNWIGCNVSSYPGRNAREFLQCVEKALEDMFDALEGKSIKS

[8] = SUPPLEMENTARY: PAMPA permeability assay; type: physicochemical; conditions: read-out: Permeability

| SMILES | solubility kinetic [1] | logD [2] | IC50 [3] | IC50 [4] | IC50 [5] | IC50 [6] | IC50 [7] | Papp [8] |
| --- | --- | --- | --- | --- | --- | --- | --- | --- |
| COc1ccc(Cl)cc1S(=O)(=O)N1CC[S+]([O-])c2ccc(C(=O)Nc3ccc(CC(=O)O)cc3)cc21 (centres undefined) | 456 µg/mL (≈ 831 µM) | -0.86 | 259 nM | 225 nM | 220 nM | > 100000 nM | > 100000 nM |  |
| COc1ccc(Cl)cc1S(=O)(=O)c1c[nH]c2ccc(C(=O)Nc3ccc(C(=O)O)cc3)cc12 | 23 µg/mL (≈ 47.4 µM) | 0.84 | 528 nM | 20.3 nM | 17.5 nM | 5120 nM | 1960 nM |  |
| COc1ccc(Cl)cc1-c1csc([C@H]2CCCCN2C(=O)COc2ccccc2)n1 | < 1 µg/mL | > 4 | > 100000 nM | 761 nM |  | > 100000 nM | > 100000 nM |  |
| COc1ccc(Cl)cc1S(=O)(=O)c1cn(CSC)c2ccc(C(=O)Nc3ccccc3)cc12 | < 1 µg/mL | > 3 | > 100000 nM | 25.2 nM | 188 nM | > 100000 nM | > 100000 nM |  |
| COc1ccc(Cl)cc1S(=O)(=O)Nc1cccc(C(=O)Nc2ccc(-c3nnn[nH]3)cc2)c1 | 25 µg/mL (≈ 51.6 µM) | 0.35 | 674 nM | 14.5 nM | 18.6 nM | > 100000 nM | > 100000 nM |  |
| O=C(COc1ccccc1)N1CCCC[C@@H]1c1csc(-c2n[nH]c3ccccc23)n1 | < 1 µg/mL | > 3 | 77300 nM | 129 nM |  | 56400 nM | 6230 nM |  |
| O=C(Nc1ccc(C(=O)O)c(F)c1)c1ccc2c(c1)N(S(=O)(=O)c1ccc(Cl)c(Cl)c1)CC2 | 11 µg/mL (≈ 21.6 µM) | 2.84 | 4070 nM | 69.5 nM | 102 nM | 22500 nM | 11500 nM |  |
| COc1ccc(Cl)cc1S(=O)(=O)c1nn(C)c2ccc(C(=O)Nc3ccccc3)cc12 | < 1 µg/mL | > 3 | > 100000 nM | 29.2 nM | 84.5 nM | > 100000 nM | > 100000 nM |  |
| COc1ccc(Cl)cc1S(=O)(=O)N1CCCc2ccc(Oc3ccc(CC(=O)O)cc3)cc21 |  | 1.79 | 145 nM |  | 550 nM | > 100000 nM | > 100000 nM | 0.77 ×10⁻⁶ cm/s |
| COc1ccc(Cl)cc1S(=O)(=O)c1cn(CC(=O)O)c2ccc(C(=O)Nc3ccccc3)cc12 | > 557 µg/mL | -0.23 | 11100 nM | 7.2 nM | 36.1 nM | > 100000 nM | > 100000 nM |  |
| COc1ccc(Cl)cc1S(=O)(=O)c1cn(CS(C)(=O)=O)c2ccc(C(=O)Nc3ccccc3)cc12 | < 1 µg/mL | > 3 | > 100000 nM | 61 nM | 111 nM | > 100000 nM | > 100000 nM |  |
| COc1ccc(Cl)cc1S(=O)(=O)c1c[nH]c2ccc(C(=O)Nc3nc(CC(=O)O)cs3)cc12 | 66 µg/mL (≈ 130 µM) | -0.02 | 202 nM | 18.9 nM | 39.3 nM | > 100000 nM | > 100000 nM |  |
| COc1ccc(Cl)cc1S(=O)(=O)c1c[nH]c2ccc(C(=O)Nc3ccc(CC(=O)O)cc3)cc12 | 41 µg/mL (≈ 82.2 µM) | 0.17 | 235 nM | 23.4 nM | 21.9 nM | > 100000 nM | > 100000 nM |  |
| COc1ccc(Cl)cc1S(=O)(=O)N1COc2c(Cl)cc(C(=O)Nc3ccc(C(=O)O)cc3)cc21 | 4 µg/mL (≈ 7.64 µM) |  | > 100000 nM | 34.5 nM | 43.6 nM | 68200 nM | 33700 nM | 3.92 ×10⁻⁶ cm/s |
| Cc1cc(C(=O)Nc2ccc(-c3nnn[nH]3)cc2)nn1Cc1ccc(OC(F)F)cc1 | 31 µg/mL (≈ 72.9 µM) |  | 6170 nM | 932 nM | 192 nM | 81600 nM | 72600 nM | 1.23 ×10⁻⁶ cm/s |
| COc1ccc(Cl)cc1S(=O)(=O)c1nn(CC(=O)O)c2ccc(C(=O)Nc3ccccc3)cc12 | 374 µg/mL (≈ 748 µM) | 0.31 | 39300 nM | 24.4 nM | 38.4 nM | > 100000 nM | > 100000 nM |  |
